Experimental data from patent US5753655A, “1-arylsulphonyl, arylcarbonyl and arylthiocarbonyl pyridazino derivatives and methods of preparation” (Ortho Pharmaceutical Corporation, priority 1996, dated 1998).

Molecular target: T1, rabbit uterine cytosolic progestin receptor (PR) (Oryctolagus cuniculus, UniProt P06186)
T1 construct: The high speed supernatant fraction is used as the receptor preparation; from tissue; host or cells: uterus of New Zealand rabbits, 200,000 G supernatant (cytosol)
T1 sequence (P06186 1-930): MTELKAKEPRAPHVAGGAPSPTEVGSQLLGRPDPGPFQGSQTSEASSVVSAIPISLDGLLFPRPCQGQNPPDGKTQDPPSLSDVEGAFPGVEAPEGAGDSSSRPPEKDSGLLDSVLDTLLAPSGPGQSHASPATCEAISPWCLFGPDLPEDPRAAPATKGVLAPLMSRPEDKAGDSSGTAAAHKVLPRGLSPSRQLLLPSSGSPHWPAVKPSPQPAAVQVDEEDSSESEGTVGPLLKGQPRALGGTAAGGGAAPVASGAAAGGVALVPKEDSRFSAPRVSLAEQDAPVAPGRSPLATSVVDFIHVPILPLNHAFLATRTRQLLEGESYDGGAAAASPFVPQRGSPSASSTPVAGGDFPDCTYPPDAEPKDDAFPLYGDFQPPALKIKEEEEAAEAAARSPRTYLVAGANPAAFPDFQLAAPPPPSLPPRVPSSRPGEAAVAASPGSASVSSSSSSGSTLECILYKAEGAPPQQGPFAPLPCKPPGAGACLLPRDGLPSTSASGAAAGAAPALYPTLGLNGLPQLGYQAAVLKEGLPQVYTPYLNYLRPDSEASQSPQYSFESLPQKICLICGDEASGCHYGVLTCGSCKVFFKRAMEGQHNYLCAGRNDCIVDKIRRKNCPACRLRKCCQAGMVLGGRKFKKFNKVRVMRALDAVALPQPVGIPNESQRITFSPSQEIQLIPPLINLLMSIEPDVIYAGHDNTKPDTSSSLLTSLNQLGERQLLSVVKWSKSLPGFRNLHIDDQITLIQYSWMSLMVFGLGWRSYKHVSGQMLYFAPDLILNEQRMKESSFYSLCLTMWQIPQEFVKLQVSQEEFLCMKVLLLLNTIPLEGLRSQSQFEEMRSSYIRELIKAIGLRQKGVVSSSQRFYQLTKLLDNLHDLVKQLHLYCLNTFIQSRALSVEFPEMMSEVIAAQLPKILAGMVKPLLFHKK
Test: Progestin Receptor Binding: competitive displacement of 3H-R5020
Set-up: species or system rabbit (New Zealand rabbits)
Settings: rabbit uterine cytosol, 4° C., 18 h, read-out: PR: concentration required to displace 50% of H3 labeled R5020 (IC50)
Procedure: Progestin Receptor Binding
The procedure used is essentially that of J. L. McGuire, C. D. Bariso and A. P. Shroff in Biochemistry 13, 319 (1974).
Uteri from New Zealand rabbits (1.5 to 2.5 kg) are placed in a cold buffer A (0.01M Tris-HCl, pH 8.0, 0.001M EDTA, 0.25M sucrose). The uteri are minced, washed and homogenized in cold buffer A. The homogenate (2 g wet tissue/mL buffer) is centrifuged at 200,000 G for 1 h at 4° C. The high speed supernatant fraction is used as the receptor preparation.
A competitive binding assay is performed by mixing ^3 H-R5020 with the receptor preparation and adding a known amount of unlabelled compound. This mixture is incubated at 4° C. for 18 h. The compounds bound to the receptor are separated from those free in solution using dextran coated charcoal and the amount of isotope bound to the receptor is determined. A depression of 20% or greater from control isotope binding is considered significant.
If there is no value reported in the T47D column that particular compound was not tested.

| SMILES | IC50 |
| --- | --- |
| O=S(=O)(c1ccc(I)cc1)N1CCC2CCCc3c(Br)cccc3C2=N1 (stereo not shown) [Example 1, 8-Bromo-3,4,4a,5,6,7-hexahydro-2-(4-iodobenzenesulfonyl)-2H-benzo[6,7]cyclohepta[1,2c]pyridazine] | 76 nM |
| O=S(=O)(c1ccc(I)cc1)N1CCC2CCc3c(Br)cccc3C2=N1 (stereo not shown) [Example 2, 8-Bromo-3,4-diazo-1,2,3,9,10,10a-hexahydro-3-(4-iodobenzenesulfonyl)phenanthrene] | 10 nM |
| O=S(=O)(c1ccc(I)cc1)N1CCC2CCc3c(ccc(Br)c3Br)C2=N1 (stereo not shown) [Example 3, 7,8-Dibromo-3,4-diazo-1,2,3,9,10,10a-hexahydro-3-(4-iodobenzenesulfonyl)phenanthrene] | 2.4 nM |
| O=S(=O)(c1ccc(I)cc1)N1CCC2CCc3cc(Cl)ccc3C2=N1 (stereo not shown) [Example 4, 7-Chloro-3,4-diazo-1,2,3,9,10,10a-hexahydro-3-(4-iodobenzenesulfonyl)phenanthrene] | 8.3 nM |
| O=S(=O)(c1cc(Cl)ccc1Cl)N1CCC2CCc3cc(Cl)ccc3C2=N1 (stereo not shown) [Example 5, 7-Chloro-3,4-diazo-1,2,3,9,10,10a-hexahydro-3-(2,5-dichlorobenzenesulfonyl)phenanthrene] | 34 nM |

System: T47D human breast carcinoma cells
Test: Ex Vivo Progestational Test: 3H-thymidine incorporation into T47-D cells
Format: cell-based
Settings: T47D, antagonist, printed with - sign, R5020 (promegestone) induced proliferation, read-out: T47D: antagonist EC50 against R5020 induced proliferation
Procedure: Ex Vivo Progestational Test
The incorporation of ^3 H-thymidine into T47-D cells was used to test the effect of compounds on T47-D cell proliferation.
T47-D (human breast line) was used employing standard sterile techniques. Cells were maintained in RPMI 1640 medium supplemented with fetal bovine serum (10%) and insulin (0.2 I.U./ml). Cells were trypsinized and passaged using standard procedures.
Cells were plated in 96-well microtiter plates by incubation in RPMI medium (phenol red-free, insulin-free, 5% charcoal treated fetal bovine serum) at 37° C. in an atmosphere of 95% air/5% CO2. Approximately 48 hours later, spent medium was replaced by fresh medium containing test compounds dissolved in DMSO (0.1% final concentration) and the cells were incubated for approximately 22 hours. ^3 H-Thymidine was added and the incubation allowed to proceed for another 4 hours. The test was then stopped with the addition of excess unlabeled thymidine. Cells were washed free of soluble thymidine, trypsinized and harvested by standard procedures. The amount of ^3 H-thymidine incorporated into DNA was determined by liquid scintillation counting. The primary standards were promegestone, a potent synthetic progestin and RU486, an antiprogestin. Test compounds were generally screened at concentrations ranging from 0.1 to 1000 nM. A compound was considered active if it stimulated or inhibited thymidine incorporation. Results were expressed as the concentration of test compounds needed to increase proliferation 2 times over control (SC200) or the concentration needed to inhibit promegestone induced proliferation by 50% (EC50). A value less than 1000 nM was considered active.
Aspects of the application of the procedure used are described in the following: C. Christensen, D. Gunter, D. Saunders and V. Malviya, Gynecol. Oncol., 28, 25 (1987); J. Puzas, R. Drivdahl, G. Howard and D. Baylink, Proc. Soc. Exp. Biol. Med., 166, 113 (1981); and I. Keydar, L. Chen, S. Karby, F. Weiss, J. Delarea, M. Raduy, S. Chaitcik and H. Brenner, Eur. J. Cancer, 15, 659 (1979). […]

| SMILES | EC50 |
| --- | --- |
| O=S(=O)(c1ccc(I)cc1)N1CCC2CCc3cc(Cl)ccc3C2=N1 (stereo not shown) [Example 4, 7-Chloro-3,4-diazo-1,2,3,9,10,10a-hexahydro-3-(4-iodobenzenesulfonyl)phenanthrene] | 654 nM |
| O=S(=O)(c1cc(Cl)ccc1Cl)N1CCC2CCc3cc(Cl)ccc3C2=N1 (stereo not shown) [Example 5, 7-Chloro-3,4-diazo-1,2,3,9,10,10a-hexahydro-3-(2,5-dichlorobenzenesulfonyl)phenanthrene] | 495 nM |

Same assay, conditions: agonist, printed with + sign, T47D proliferation, 3H-thymidine, read-out: T47D: agonist SC200 (concentration stimulating 2fold above control)

| SMILES | EC (2-fold above control) |
| --- | --- |
| O=S(=O)(c1ccc(I)cc1)N1CCC2CCc3c(ccc(Br)c3Br)C2=N1 (stereo not shown) [Example 3, 7,8-Dibromo-3,4-diazo-1,2,3,9,10,10a-hexahydro-3-(4-iodobenzenesulfonyl)phenanthrene] | 0.337 µM |

System: TE85 human bone cells
Test: Bone cell proliferation (TE85 cells)
Format: cell-based
Settings: average at 5 concentrations
Text: A similar method was used to measure the effect of test compounds on TE85 human bone cells.
Tables 2 and 3 show several examples of the invention with molecular formulas, melting points, and activity expressed as the average increase in bone cell proliferation at 5 concentrations (CP) or as the concentration of compound in nanomoles per liter (×10^-9 M) required to displace 50% of I^125 labeled vinyl nortestosterone (VNT) from the human bone progestin receptor (BPR) (IC50). If there is no value reported in the CP column that particular compound was not tested.

| SMILES | CP: average increase in bone cell proliferation at 5 concentrations |
| --- | --- |
| O=C(c1ccc(Cl)c(Cl)c1)N1CCC2CCc3ccccc3C2=N1 (stereo not shown) [Example 6, 3-(3,4-dichlorobenzoyl)-3,4-diazo-1,2,3,9,10,10a-hexahydrophenanthrene] | 115 |
| O=C(c1cc(Cl)cc(Cl)c1)N1CCC2CCCc3ccccc3C2=N1 (stereo not shown) [Example 7, 2-(3,5-dichlorobenzoyl)-3,4,4a,5,6,7-hexahydro-2H-benzo[6,7]cyclohepta[1,2c]pyridazine] | 120 |
| O=C(c1ccc(Cl)c(Cl)c1)N1CCC2CCCc3ccccc3C2=N1 (stereo not shown) [Example 9, 2-(3,4-dichlorobenzoyl)-3,4,4a,5,6,7-hexahydro-2H-benzo[6,7]cyclohepta[1,2c]pyridazine] | 123 |
| O=C(c1ccc(F)c(F)c1)N1CCC2CCc3ccccc3C2=N1 (stereo not shown) [Example 10, 3-(3,4-difluorobenzoyl)-3,4-diazo-1,2,3,9,10,10a-hexahydrophenanthrene] | 112 |
| O=C(c1cc(Cl)cc(Cl)c1)N1CCC2CCc3ccccc3C2=N1 (stereo not shown) [Example 11, 3-(3,5-dichlorobenzoyl)-3,4-diazo-1,2,3,9,10,10a-hexahydrophenanthrene] | 113 |
| O=C(c1ccc(Cl)c(Cl)c1)N1CCC2COc3ccccc3C2=N1 (stereo not shown) [Example 12, 3-(3,4-dichlorobenzoyl)-3,4-diazo-9-oxa-1,2,3,9,10,10a-hexahydrophenanthren] | 107 |
| S=C(c1cc(Cl)cc(Cl)c1)N1CCC2CCCc3ccccc3C2=N1 (stereo not shown) [Example 15, 2-(3,5-dichlorothiobenzoyl)-3,4,4a,5,6,7-hexahydro-2H-benzo[6,7]cyclohepta[1,2c]pyridazine] | 109 |
| Fc1ccc(C(=S)N2CCC3CCCc4ccccc4C3=N2)cc1F (stereo not shown) [Example 16, 2-(3,4-difluorothiobenzoyl)-3,4,4a,5,6,7-hexahydro-2H-benzo[6,7]cyclohepta[1,2c]pyridazine] | 111 |
| S=C(c1ccc(Cl)c(Cl)c1)N1CCC2CCCc3ccccc3C2=N1 (stereo not shown) [Example 17, 2-(3,4-dichlorothiobenzoyl)-3,4,4a,5,6,7-hexahydro-2H-benzo[6,7]cyclohepta[1,2c]pyridazine] | 115 |
| S=C(c1ccc(Cl)c(Cl)c1)N1CCC2CCc3ccccc3C2=N1 (stereo not shown) [Example 19, 3-(3,4-dichlorothiobenzoyl)-3,4-diazo-1,2,3,9,10,10a-hexahydrophenanthrene] | 87 |
| S=C(c1cc(Cl)cc(Cl)c1)N1CCC2CCc3ccccc3C2=N1 (stereo not shown) [Example 20, 3-(3,5-dichlorothiobenzoyl)-3,4-diazo-1,2,3,9,10,10a-hexahydrophenanthrene] | 103 |
